Patent publication US7151105B2, “Inhibitors of Hepatitis C virus RNA-dependent RNA polymerase, and compositions and treatments using the same” (Agouron Pharmaceuticals, Inc., priority 2004, dated 2006)
Structures can show the parent of a compound that is named as a salt.

target: T1, Recombinant HCV polymerase (Hepatitis C virus genotype 1b, UniProt P26663); assay: biochemical; conditions: inhibition of polymerase-directed transcription; 30 min at 30° C; 30 nM enzyme; cpm data in triplicate
T1 construct: Recombinant HCV polymerase was tested for its ability to perform primer/template-directed transcription
T1 sequence (P26663 2420-3010): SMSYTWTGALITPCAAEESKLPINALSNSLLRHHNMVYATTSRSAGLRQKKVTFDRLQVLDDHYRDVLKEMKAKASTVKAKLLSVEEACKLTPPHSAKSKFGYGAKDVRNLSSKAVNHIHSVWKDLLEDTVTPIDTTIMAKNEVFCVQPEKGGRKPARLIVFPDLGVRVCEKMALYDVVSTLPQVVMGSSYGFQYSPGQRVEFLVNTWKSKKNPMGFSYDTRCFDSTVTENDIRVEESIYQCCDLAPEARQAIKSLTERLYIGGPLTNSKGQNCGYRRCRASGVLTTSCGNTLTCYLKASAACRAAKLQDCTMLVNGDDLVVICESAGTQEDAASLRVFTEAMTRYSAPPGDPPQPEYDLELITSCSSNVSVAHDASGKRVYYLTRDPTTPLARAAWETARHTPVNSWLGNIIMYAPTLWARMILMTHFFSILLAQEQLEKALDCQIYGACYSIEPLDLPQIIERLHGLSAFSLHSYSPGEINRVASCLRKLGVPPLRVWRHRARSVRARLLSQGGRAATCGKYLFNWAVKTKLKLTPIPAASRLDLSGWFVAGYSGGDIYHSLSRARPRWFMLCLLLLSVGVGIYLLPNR
Summary of the method: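 Primer/template-directed RNA synthesis by 2.5 pmol HCV polymerase on poly(rC)300/biotin-dG12 with 1 μM GTP plus α-32P-GTP, in pH 7.2 Tris buffer with 10 mM MgCl2, for 30 min at 30 °C. Products were filter-captured and counted, with 1% DMSO final. IC50 was fitted from triplicate cpm; percent inhibition was reported where IC50 was impractical.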

IC50 | Compound
6 nM | CCc1cc(CCC2(C3CCCC3)CC(O)=C(Cc3nc4ncccn4n3)C(=O)O2)ccc1NS(C)(=O)=O (stereo not drawn) [A(107), N-(4-{2-[2-cyclopentyl-4-hydroxy-6-oxo-5-([1,2,4]triazolo[1,5-a]pyrimidin-2-ylmethyl)-3,6dihydro-2H-pyran-2-yl]ethyl}-2-ethylphenyl)methanesulfonamide]
6 nM | CCc1cc(CCC2(C3CCCC3)CC(O)=C(Cc3nc4nc(C)cc(C)n4n3)C(=O)O2)ccc1NS(=O)(=O)CC (stereo not drawn) [A(108), N-[4-(2-{2-cyclopentyl-5-[(5,7-dimethyl[1,2,4]triazolo[1,5-a]pyrimidin-2-yl)methyl]-4-hydroxy-6-oxo-3,6-dihydro-2H-pyran-2-yl}ethyl)-2-ethylphenyl]ethanesulfonamide]
6 nM | CCCS(=O)(=O)Nc1ccc(CCC2(C3CCCC3)CC(O)=C(Cc3nc4nc(C)cc(C)n4n3)C(=O)O2)cc1CC (stereo not drawn) [A(109), N-[4-(2-{2-cyclopentyl-5-[(5,7-dimethyl[1,2,4]triazolo[1,5-a]pyrimidin-2-yl)methyl]-4-hydroxy-6-oxo-3,6-dihydro-2H-pyran-2-yl}ethyl)-2-ethylphenyl]propane-1-sulfonamide]
6 nM | CCc1cc(CCC2(C3CCCC3)CC(O)=C(Cc3nc4nc(C)cc(C)n4n3)C(=O)O2)ccc1Cn1cncn1 (stereo not drawn) [A(110), 6-Cyclopentyl-3-[(5,7-dimethyl[1,2,4]triazolo[1,5-a]pyrimidin-2-yl)methyl]-6-{2-[3-ethyl-4-(1H-1,2,4-triazol-1-ylmethyl)phenyl]ethyl}-4-hydroxy-5,6-dihydro-2H-pyran-2-one]
5 nM | CCc1cc(CCC2(C3CCCC3)CC(O)=C(Cc3nc4nc(C)cc(C)n4n3)C(=O)O2)ccc1C (stereo not drawn) [A(111), 6-Cyclopentyl-3[(5,7-dimethyl[1,2,4]triazolo[1,5-a]pyrimidin-2-yl)methyl]-6-[2-(3-ethyl-4-methylphenyl)ethyl]-4-hydroxy-5,6dihydro-2H-pyran-2-one]
7 nM | CCc1cc(CCC2(C3CCCC3)CC(O)=C(Cc3nc4nc(C)cc(C)n4n3)C(=O)O2)ccc1Cn1cccn1 (stereo not drawn) [A(112), 6-Cyclopentyl-3-[(5,7-dimethyl[1,2,4]triazolo[1,5-a]pyrimidin-2-yl)methyl]-6-{2-[3-ethyl-4-(1H-pyrazol-1-ylmethyl)phenyl]ethyl}-4-hydroxy-5,6-dihydro-2H-pyran-2-one]
7 nM | CCc1cc(CCC2(C3CCCC3)CC(O)=C(Cc3nc4ncc(C)cn4n3)C(=O)O2)ccc1Cn1cccn1 (stereo not drawn) [A(113), 6-Cyclopentyl-6-{2-[3-ethyl-4-(1H-pyrazol-1-ylmethyl)phenyl]ethyl}-4-hydroxy-3-[(6-methyl[1,2,4]triazolo[1,5-a]pyrimidin-2-yl)methyl]-5,6-dihydro-2H-pyran-2-one]
7 nM | CCc1cc(CCC2(C3CCCC3)CC(O)=C(Cc3nc4nc(C)cc(C)n4n3)C(=O)O2)ccc1C(=O)OC (stereo not drawn) [A(118), Methyl 4-(2-{2-cyclopentyl-5-[(5,7-dimethyl[1,2,4]triazolo[1,5a]pyrimidin-2-yl)methyl]-4-hydroxy-6oxo-3,6-dihydro-2H-pyran-2-yl}ethyl)-2-ethylbenzoate]
7 nM | CCc1cc(CCC2(C3CCCC3)CC(O)=C(Cc3nc4nc(C)cc(C)n4n3)C(=O)O2)ccc1COC (stereo not drawn) [A(120), 6-Cyclopentyl-3-[(5,7-dimethyl[1,2,4]triazolo[1,5-a]pyrimidin-2-yl)methyl]-6-{2-[3ethyl-4-(methoxymethyl)phenyl]ethyl}-4-hydroxy-5,6dihydro-2H-pyran-2-one]
6 nM | CCc1cc(CCC2(C3CCCC3)CC(O)=C(Cc3nc4nc(C)cc(C)n4n3)C(=O)O2)ccc1C(=O)NC (stereo not drawn) [A(121), 4-(2-{2-cyclopentyl-5-[(5,7-dimethyl[1,2,4]triazolo[1,5-a]pyrimidin-2-yl)methyl]-4-hydroxy-6-oxo-3,6-dihydro-2H-pyran-2-yl}ethyl)-2-ethyl-N-methylbenzamide]
4 nM | CCc1cc(CCC2(C3CCCC3)CC(O)=C(Cc3nc4nc(C)cc(C)n4n3)C(=O)O2)ccc1Oc1nccs1 (stereo not drawn) [A(122), 6-Cyclopentyl-3-[(5,7-dimethyl[1,2,4]triazolo[1,5-a]pyrimidin-2-yl)methyl]-6-{2-[3ethyl-4-(1,3thiazol-2-yloxy)phenyl]ethyl}-4hydroxy-5,6dihydro-2H-pyran-2-one]
8 nM | CCc1cc(CCC2(C3CCCC3)CC(O)=C(Cc3nc4nc(C)cc(C)n4n3)C(=O)O2)c(C)nc1N (stereo not drawn) [A(124), 6-[2-(6-Amino-5-ethyl-2-methylpyridin-3-yl)ethyl]-6-cyclopentyl-3-[(5,7-dimethyl[1,2,4]triazolo[1,5-a]pyrimidin-2-yl)methyl]-4-hydroxy-5,6-dihydro-2H-pyran-2-one]
10 nM | CCc1cc(CCC2(C3CCCC3)CC(O)=C(Cc3nc4nc(C)cc(C)n4n3)C(=O)O2)ccc1CN (stereo not drawn) [A(125), 6-{2-[4-(Aminomethyl)-3-ethylphenyl]ethyl}-6-cyclopentyl-3-[(5,7-dimethyl[1,2,4]triazolo[1,5-a]pyrimidin-2-yl)methyl]-4-hydroxy-5,6-dihydro-2H-pyran-2-one hydrochloride]
6 nM | CCc1cc(CCC2(C3CCCC3)CC(O)=C(Cc3nc4nc(C)cc(C)n4n3)C(=O)O2)ccc1CNC(=O)OC(C)(C)C (stereo not drawn) [A(126)]
130 nM | CCc1cc(CCC2(C3CCCC3)CC(O)=C(Cc3nc4nc(C)cc(C)n4n3)C(=O)O2)ccc1CNCC1CC1 (stereo not drawn) [A(127), 6-Cyclopentyl-6-[2-(4-{[(cyclopropylmethyl)amino]methyl}-3-ethylphenyl)ethyl]-3-[(5,7-dimethyl[1,2,4]triazolo[1,5-a]pyrimidin-2-yl)methyl]-4-hydroxy-5,6-dihydro-2H-pyran-2-one]
6 nM | CCc1cc(CCC2(C3CCCC3)CC(O)=C(Cc3nc4nc(C)cc(C)n4n3)C(=O)O2)ccc1CNS(C)(=O)=O (stereo not drawn) [A(128)]
2 nM | CCc1cc(CCC2(C3CCCC3)CC(O)=C(Cc3nc4nc(C)cc(C)n4n3)C(=O)O2)ccc1CNC(C)=O (stereo not drawn) [A(131), N-[4-(2-{2-cyclopentyl-5-[(5,7-dimethyl[1,2,4]triazolo[1,5-a]pyrimidin-2-yl)methyl]-4-hydroxy-6-oxo-3,6-dihydro-2H-pyran-2-yl}ethyl)-2-ethylbenzyl]acetamide]
3 nM | CCc1cc(CCC2(C3CCCC3)CC(O)=C(Cc3nc4nc(C)cc(C)n4n3)C(=O)O2)ccc1-c1ncco1 (stereo not drawn) [A(134), 6-cyclopentyl-3-[(5,7-dimethyl[1,2,4]triazolo[1,5-a]pyrimidin-2-yl)methyl]-6-{2-[3-ethyl-4-(1,3-oxazol-2-yl)phenyl]ethyl}-4-hydroxy-5,6-dihydro-2H-pyran-2-one]
210 nM | CCc1cc(CCC2(C3CCCC3)CC(=O)CC(=O)O2)ccc1-c1ncco1 (stereo not drawn) [A(135), 6-Cyclopentyl-6-{2-[3-ethyl-4-(1,3-oxazol-2-yl)phenyl]ethyl}dihydro-2H-pyran-2,4(3H)-dione]
3 nM | CCc1cc(CCC2(C3CCCC3)CC(O)=C(Cc3nc4ncccn4n3)C(=O)O2)ccc1-c1ncco1 (stereo not drawn) [A(136), 6-Cyclopentyl-6-{2-[3-ethyl-4-(1,3-oxazol-2-yl)phenyl]ethyl}-4-hydroxy-3-([1,2,4]triazolo[1,5-a]pyrimidin-2-ylmethyl)-5,6-dihydro-2H-pyran-2-one]
300 nM | CCc1cc(CCC2(C3CCCC3)CC(O)=C(Cc3nc4ncc(C)cn4n3)C(=O)O2)ccc1-c1ncco1 (stereo not drawn) [A(137), 6-Cyclopentyl-6-{2-[3-ethyl-4-(1,3-oxazol-2-yl)phenyl]ethyl}-4-hydroxy-2-[(6-methyl[1,2,4]triazolo[1,5-a]pyrimidin-2-yl)methyl]-5,6-dihydro-2H-pyran-2-one]
